From patent publication US20010006969A1, “PYRIMIDINE NUCLEUS-CONTAINING COMPOUND AND A MEDICAMENT CONTAINING THE SAME FOR A BLOOD OXYGEN PARTIAL PRESSURE AMELIORATION, AND A METHOD FOR PREPARING THE SAME” (priority 1997, published 2001) come the findings set out here.

Structures can show the parent of a compound that is named as a salt.

What is called melting point is the temperature, or range, at which the solid turns liquid. In turn, `C=CCNc1nc(NCC=C)c2cc(NC)ccc2n1` (as salt: hydrochloride) registered a melting point of 155 to 158 °C.

Regarding `C=CCNc1nc(NC(C)CC)nc2ccc([N+](=O)[O-])cc12` (centres unmarked) (as salt: hydrochloride), the melting point is 219 to 220 °C. With `C=CCNc1nc(NC(C)(C)C)c2cc([N+](=O)[O-])ccc2n1` (as salt: hydrochloride) the figure was 208 to 209 °C; with `C=CCNc1nc(N(CC=C)CC=C)nc2c(C)csc12` (as salt: hydrochloride), 136 to 138 °C (dec.). In turn, `C=CCNc1nc(NC(=O)NC(C)(C)C)c2scc(C)c2n1` (as salt: hydrochloride) yielded a melting point of 192 to 194 °C. With `C=CCNc1nc(NCc2ccco2)nc2ccc([N+](=O)[O-])cc12` (as salt: hydrochloride) [Example 33, 4-Allylamino-2-furfurylamino-6-nitroquinazoline hydrochloride], the melting point was 217 to 218 °C. For `C=CCNc1nc(NC(C)CC)c2cc([N+](=O)[O-])ccc2n1` (stereo not drawn) (as salt: hydrochloride) [Example 49, 2-Allyiamino-4-(l-methylpropylamino)-6-nitroquinazoline hydrochloride] the value was 176 to 177 °C; for `C=CCNc1nc(NC2CCCCC2)c2scc(C)c2n1` (as salt: hydrochloride) [Example 70, 2-Allylamino-4-cyclohexylamino-7-methylthieno[3,2-d] pyrimidine hydrochloride], 140 to 142 °C. With `C=CCNc1nc(N(CC=C)CC=C)c2scc(C)c2n1` (as salt: hydrochloride) [Example 71, 2-Allylamino-4-diallylamino-7-methylthieno[3,2-d] pyrimidine hydrochloride] the figure was 76 to 78 °C (dec.); with `C=CCNc1nc(NCCOC)nc2ccc([N+](=O)[O-])cc12` [Example 8, 4-Allylamino-2-(2-methoxyethylamino)-6-nitroquinazoline], 164 to 165 °C; with `C=CCNc1nc(N(CC=C)CC=C)nc2ccc([N+](=O)[O-])cc12` [Example 9, 4-Allylamino-2-diallylamino-6-nitroquinazoline], 167 to 168 °C. For `C=CCNc1nc(NCC(C)(C)C)c2cc([N+](=O)[O-])ccc2n1` [Example 11, 2-Allylamino-4-neopentylamino-6-nitroauinazoline], the melting point lay in the range of 216 to 217 °C. For `C=CCNc1nc(NCc2ccccc2)c2cc([N+](=O)[O-])ccc2n1` [Example 12, 2-Allylamino-4-benzylamino-6-nitroquinazoline] the value was 235 to 236 °C; for `C=CCNc1nc(N2CCCCC2)c2cc([N+](=O)[O-])ccc2n1` [Example 13, 2-Allylamino-6-nitro-4-piperidinoquinazoline], 123 to 124 °C; for `C=CCNc1nc(NCC=C)c2cc(N)ccc2n1` [Example 14, 2,4-Diallylamino-6-aminoquinazoline], 212 to 215 °C. With `C=CCNc1nc(N(CC=C)CC=C)nc2ccc(Cl)cc12` [Example 15, 4-Allylamino-2-diallylamino-6-chloroquinazoline] the figure was 73 to 74 °C; with `C=CCNc1nc(NC)nc2ccc([N+](=O)[O-])cc12` [Example 16, 4-Allylamino-2-methylamino-6-nitroquinazoline], 238 to 239 °C. With `C=CCNc1nc(NCC)nc2ccc([N+](=O)[O-])cc12` [Example 17, 4-Allylamino-2-ethylamino-6-nitroquinazoline] the figure was 227 to 228 °C. The compound `C=CCNc1nc(NC(C)(C)C)nc2ccc([N+](=O)[O-])cc12` [Example 19, 4-Allylamino-2-t-butylamino-6-nitroquinazoline] gave a melting point of 139 to 140 °C. Consider `C=CCNc1nc(NCCN)nc2ccc([N+](=O)[O-])cc12` [Example 20, 4-Allylamino-2-(2-aminoethylamino)-6-nitroquinazoline], for which the melting point fell in the range of 126 to 128 °C. For `C=CCNc1nc(NC/C=C/c2ccccc2)c2cc([N+](=O)[O-])ccc2n1` [Example 23, 2-Allylamino-4-trans-cinnamylamino-6-nitroquinazoline] the value was 206 to 208 °C.

In turn, `C=CCNc1nc(NCCCC)c2cc([N+](=O)[O-])ccc2n1` [Example 24, 2-Allylamino-4-butylamino-6-nitroquinazoline] displayed a melting point of 214 to 215 °C.

Take `C#CCNc1nc(NCC=C)c2cc([N+](=O)[O-])ccc2n1` [Example 29, 4-Allylamino-6-nitro-2-(2-propynylamino)quinazoline]: the melting point fell in the range of 192 to 193 °C.

As to `C=CCNc1nc(NC/C=C/C)nc2ccc([N+](=O)[O-])cc12` [Example 30, 4-Allylamino-2-(trans-2-butenylamino)-6-nitroquinazoline], the melting point lay within 188 to 189 °C.

`C=CCNc1nc(NCCCCCCC)nc2ccc([N+](=O)[O-])cc12` [Example 36, 4-Allylamino-2-heptylamino-6-nitroquinazoline]: the melting point fell in the range of 173 to 174 °C.

With `C=CCNc1nc(NN2CCCCC2)nc2ccc([N+](=O)[O-])cc12` [Example 37, 4-Allylamino-6-nitro-2-piperidinoaminoquinazoline], the melting point is 221 to 222 °C. With `C=CCNc1nc(NCCOCCC)nc2ccc([N+](=O)[O-])cc12` [Example 38, 4-Allylamino-6-nitro-2-(2-propoxyethylamino)quinazoline] the figure was 169 to 170 °C.

As to `C=CCNc1nc(NC(=O)NC(C)(C)C)c2cc([N+](=O)[O-])ccc2n1` [Example 40, 2-Allylamino-4-(t-butylcarbamoyl)amino-6-nitroquinazoline], the melting point is 200 to 201 °C. On to `C=CCN(C(=O)NC(C)(C)C)c1nc(NC(=O)NC(C)(C)C)c2cc([N+](=O)[O-])ccc2n1` [Example 41, 2-[N-allyl-N-(t-butylcarbamoyl)amino]-4-(t-butylcarbamoyl)amino-6-nitroquinazoline], for which the melting point fell in the range of 105 to 106 °C. For `C=CCNc1nc(NC(C)=O)c2cc([N+](=O)[O-])ccc2n1` [Example 42, 4-Acetylamino-2-allylamino-6-nitroquinazoline] the value was 253 to 254 °C; for `C=CCNc1nc(NC(=O)OCC(C)C)c2cc([N+](=O)[O-])ccc2n1` [Example 43, 2-Allylamino-4-(2-methylpropoxycarbonyl)amino-6-nitroquinazoline], 148 to 149 °C. For `C=CCNc1nc(NC(C)=O)nc2ccc([N+](=O)[O-])cc12` [Example 44, 2-Acetylamino-4-allylamino-6-nitroquinazoline] the value was 239 to 240 °C; for `C=CCNc1nc(NC(=O)NCCC)nc2ccc([N+](=O)[O-])cc12` [Example 45, 4-Allylamino-6-nitro-2-(propylcarbamoyl)aminoquinazoline], 254 to 255 °C. In the case of `C=CCNc1nc(NN(C)C)c2cc([N+](=O)[O-])ccc2n1` [Example 46, 2-Allylamino-4-(2,2-dimethylhydrazino)-6-nitroquinazoline], the melting point was 145 to 146 °C. As to `C=CCNc1nc(NCCCCCCCCCCCC)c2cc([N+](=O)[O-])ccc2n1` [Example 47, 2-Allylamino-4-dodecylamino-6-nitroquinazoline], the melting point was 154 to 155 °C. For `C=CCNc1nc(NCCCCCCCCCCCC)nc2ccc([N+](=O)[O-])cc12` [Example 48, 4-Allylamino-2-dodecylamino-6-nitroquinazoline] the value was 148 to 155 °C; for `C=CCNc1nc(NC23CC4CC(CC(C4)C2)C3)c2cc([N+](=O)[O-])ccc2n1` [Example 52, 4-(1-Adamantylamino)-2-allylamino-6-nitroquinazoline], 224 to 225 °C. Turning to `C=CCNc1nc(NCCC(=O)N2CCCCC2)nc2ccc([N+](=O)[O-])cc12` [Example 53, 4-Allylamino-6-nitro-2-[2-(piperidinocarbonyl)ethylamino] quinazoline], the melting point fell in the range of 178 to 179 °C. For `C=CCNc1nc(NCc2ccccn2)nc2ccc([N+](=O)[O-])cc12` [Example 54, 4-Allylamino-6-nitro-2-(2-pyridylmethylamino)quinazoline], the melting point fell in the range of 202 to 203 °C. As for `C=CCNc1nc(NCC(F)(F)F)c2cc([N+](=O)[O-])ccc2n1` [Example 55, 2-Allylamino-4-(2,2,2-trifluoroethylamino)-6-nitroquinazoline], the melting point is 215 to 216 °C. For `C=CCNc1nc(NCC(F)(F)F)nc2ccc([N+](=O)[O-])cc12` [Example 56, 4-Allylamino-2-(2,2,2-trifluoroethylamino)-6-nitroquinazoline] the value was 221 to 222 °C; for `C=CCNc1nc(NCC=C(C)C)nc2ccc([N+](=O)[O-])cc12` [Example 58, 4-Allylamino-2-(3-methyl-2-butenylamino)-6-nitroquinazoline], 194 to 195 °C; for `C=CCNc1nc(NCC=C(C)C)c2cc([N+](=O)[O-])ccc2n1` [Example 59, 2-Allylamino-4-(3-methyl-2-butenylamino)-6-nitroquinazoline], 209 to 210 °C. With `CC(C)=CCNc1nc(NCC=C(C)C)c2cc([N+](=O)[O-])ccc2n1` [Example 61, 2,4-Bis(3-methyl-2-butenylamino)-6-nitroquinazoline] the figure was 168 to 172 °C.

`C=CC(C)Nc1nc(NCCCC)nc2ccc([N+](=O)[O-])cc12` (centres unmarked) [Example 62, 2-Butylamino-4-(1-methyl-2-propenylamino)-6-nitroquinazoline] gave a melting point of 156 to 158 °C. For `C=CCNc1nc(NC(C)C=C)c2cc([N+](=O)[O-])ccc2n1` (centres unmarked) [Example 63, 2-Allylamino-4-(1-methyl-2-propenylamino)-6-nitroquinazoline] the value was 172 to 173 °C; for `C=CC(C)Nc1nc(NC(C)C=C)c2cc([N+](=O)[O-])ccc2n1` (centres unmarked) [Example 64, 2,4-Bis(1-methyl-2-propenylamino)-6-nitroquinazoline], 122 to 125 °C.
